How the values were obtained:
Assay type in all cases: binding
BphP1-FP [1] = target: T1, BphP1-FP (Rhodopseudomonas palustris, UniProt A0A161I5N6, C19S/I252C, form not given); test: zinc-induced fluorescence on SDS-PAGE; absorption and fluorescence spectroscopy; conditions: covalent, to Cys256 (GAF) only; otherwise same
T1 construct: engineered near-infrared fluorescent protein from PAS-GAF (CBD) of RpBphP1, lacks PHY and effector domains; N-terminal polyhistidine tag (pBAD/His-B); E. coli LMG194 with heme oxygenase; monomer, about 35 kDa

BphP1-FP [2] = target: T2, BphP1-FP (Rhodopseudomonas palustris, UniProt A0A161I5N6, C19S, form not given); test: absorption and fluorescence spectroscopy of purified holoprotein; conditions: non-covalent (no reactive Cys); otherwise same
T2 construct: engineered near-infrared fluorescent protein from PAS-GAF (CBD) of RpBphP1, lacks PHY and effector domains; N-terminal polyhistidine tag (pBAD/His-B); E. coli LMG194 with heme oxygenase; monomer, about 35 kDa

BphP1-FP [3] = target: T3, BphP1-FP (Rhodopseudomonas palustris, UniProt A0A161I5N6, I252C, form not given); test: zinc-induced fluorescence on SDS-PAGE; absorption and fluorescence spectroscopy; conditions: covalent, to Cys256 (GAF) and partly also Cys15 (PAS); co-expressed heme oxygenase supplies BV; 20 mM Tris/HCl pH 8.0, 1 mM TCEP
T3 construct: engineered near-infrared fluorescent protein from PAS-GAF (CBD) of RpBphP1, lacks PHY and effector domains; N-terminal polyhistidine tag (pBAD/His-B); E. coli LMG194 with heme oxygenase; monomer, about 35 kDa
T3 sequence (A0A161I5N6 1-314 I252C limits assumed): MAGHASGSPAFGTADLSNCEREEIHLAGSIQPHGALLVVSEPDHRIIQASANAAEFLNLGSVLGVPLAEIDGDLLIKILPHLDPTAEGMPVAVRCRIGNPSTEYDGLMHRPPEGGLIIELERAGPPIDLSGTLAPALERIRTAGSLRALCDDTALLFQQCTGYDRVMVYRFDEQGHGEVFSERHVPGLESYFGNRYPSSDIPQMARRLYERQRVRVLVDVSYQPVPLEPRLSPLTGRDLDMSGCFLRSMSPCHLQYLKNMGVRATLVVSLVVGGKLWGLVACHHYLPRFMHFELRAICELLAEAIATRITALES

T1 sequence (A0A161I5N6 1-314 C19S/I252C limits assumed): as the sequence (A0A161I5N6 1-314 I252C limits assumed) above, with C19S counted along it
T2 sequence (A0A161I5N6 1-314 C19S limits assumed): as the sequence (A0A161I5N6 1-314 I252C limits assumed) above, with C19S, C252I counted along it

Compound: C=CC1=C(C)C(=Cc2[nH]c(C=C3N=C(C=C4NC(=O)C(C)=C4C=C)C(C)=C3CCC(=O)O)c(CCC(=O)O)c2C)NC1=O [BV, biliverdin]
- zinc-induced fluorescence on SDS-PAGE; absorption and fluorescence spectroscopy (BphP1-FP [1]): there was no non-covalently bound BV in BphP1-FP/C15S
- absorption and fluorescence spectroscopy of purified holoprotein (BphP1-FP [2]): Absorption and fluorescence spectra of BphP1-FP/C15S/C256I mutant without Cys15 and Cys256 residues
- zinc-induced fluorescence on SDS-PAGE; absorption and fluorescence spectroscopy (BphP1-FP [3]): The zinc-staining assay confirmed the covalent binding of the BV chromophore in BphP1-FP, BphP1-FP/C256I

— article PMC5454922, “Interaction of Biliverdin Chromophore with Near-Infrared Fluorescent Protein BphP1-FP Engineered from Bacterial Phytochrome” (International Journal of Molecular Sciences, 2017)
